The subject of experiment [1] is diabetic peripheral neuropathy. In words: Clinical case: diabetic person with DPN of stocking-glove pattern and maceration in the big toe. It is filed as in vivo, human patient. The text has this: An elderly patient of DPN with advanced DM of hyperglycemia, hypoinsulinemia, and HgbA1C elevated to 7.5%, presented themself with a typical stocking-glove pattern of DPN accompanied by maceration in the left big toe. A bitherapy of SAG+ALC halted their DPN.
The present DPN-relieving invention includes mainly four parts: (1) rescue with SAG-ALC of the tormenting DPN distress of pain, cold sensation, and maceration in the stocking-glove pattern; (2) expansion of the SAG-ALC regimen to include ALA; (3) extended use of the SAG+ALC+ALA principle for prevention of recurrence and maintenance; and (4) an extended use of the principle for induction of neuronal regeneration with SAG+ALC+ALA. • (1) Prompt halt of DPN symptoms with the application of SAG in order to amend the pre-neuronal coagulative microangiopathy and with ALC to amend the neuronal mitochondrial fatty acid transport across the carnithine window so as to help generating ATP through β-oxidation of fatty acids: the SAG+ALC principle. • A person with a 10-year history of DM developed signs and symptoms of DPN of the stocking-glove pattern and maceration in the big toe in the depth. […] The dosage could be 100 to 200 mg three times a day unless contraindicated by hemorrhagic diathesis. They were relieved of the distress but limitedly for 2-3 hours of post-dose. The patient was greatly depressed to learn that neuronal loss that could have already taken place might not be recovered with the SAG (Srinivasan et al. 2000)). • ALC was added at 1500 mg per day. The dosage range could be 500 to 4500 mg per day in the hope of eventual induction of neuronal regeneration (Tagliatela et al. 1991; Ishii et al. 2000). […] Thus, the SAG and ALC appeared to work synergistically. Within 2 months of this combination treatment, the soft swelling due to maceration in the depth of the big toe resolved (FIG. 1e). This ALC-SAG combination therapy may be continued as long as one's DPN status persists. […]

Another experiment concerns platelet aggregation. To be noted: yes/no; cited from earlier work.
Another experiment deals with arterioles. To be noted: yes/no; cited from earlier work.
In a further experiment the test system is neoangiogenesis. To be noted: yes/no; cited from earlier work.
A further experiment has as its system insulin sensitization. To be noted: yes/no; cited from earlier work.

With `COc1cccc(CCc2ccccc2OCC(CN(C)C)OC(=O)CCC(=O)O)c1` (centres unmarked) [SAG, sarpogrelate], in experiment [1] (SAG 600 mg per day, monotherapy), the “Duration of relief of distress post-dose” value was 2 to 3 h. Besides, the “Duration of halt of DPN's pain and cold intolerance per dose” value in experiment [1] (each 200 mg dose of SAG, monotherapy) was in the range of 3 to 4 h. Also, the “Effect on DPN symptoms (pain, cold sensation, numbness)” value in experiment [1] (patient, SAG 600 mg, ALC 1500 mg, ALA 600 mg per day, EPR 100 mg three times a day, as combined) is “appreciably but passingly alleviated”. Also, in the experiment with platelet aggregation, the “Anti-platelet Aggregation” value is given as “Yes”. Also, in the experiment on arterioles, the Arteriolar dilation result is given as “Yes”. Besides, the Neo-angiogenesis result with neoangiogenesis was “Yes”. Also, in the experiment with insulin sensitization, the Insulin-sensitization result was “Yes”.
`CC/C=C\C/C=C\C/C=C\C/C=C\C/C=C\CCCC(=O)OCC` [Epadel, ethyl icosapentate]: in the experiment on platelet aggregation, the “Anti-platelet Aggregation” value is “Yes”. The Arteriolar dilation result in the experiment on arterioles is given as “Yes”. Besides, the Neo-angiogenesis entry with neoangiogenesis was “No”. Moreover, the Insulin-sensitization entry in the experiment with insulin sensitization was “No”.
For `O=C1CCc2cc(OCCCCc3nnnn3C3CCCCC3)ccc2N1` [Pletaal, cilostazol], the “Anti-platelet Aggregation” value in the experiment with platelet aggregation was “Yes”. Besides, the Arteriolar dilation result in the experiment with arterioles is “Yes”. In addition, the Neo-angiogenesis result with neoangiogenesis is on record as “No”. Besides, the Insulin-sensitization entry in the experiment on insulin sensitization is “No”.
In the case of `CC1CNc2c(cccc2S(=O)(=O)N[C@@H](CCCNC(=N)N)C(=O)N2CC[C@@H](C)C[C@@H]2C(=O)O)C1` (some centres unmarked) [Novastan, argatroban hydrate], the “Anti-platelet Aggregation” value with platelet aggregation is reported as “Yes”. Further, in the experiment on arterioles, the Arteriolar dilation result is on record as “Yes”. Moreover, the Neo-angiogenesis entry with neoangiogenesis is “No”. In addition, the Insulin-sensitization result in the experiment on insulin sensitization is given as “No”.
Heparin: the “Anti-platelet Aggregation” value in the experiment with platelet aggregation is “Yes”. Besides, in the experiment with arterioles, the Arteriolar dilation entry is recorded as “No”. Also, the Neo-angiogenesis result with neoangiogenesis was “No”. For the same compound, in the experiment on insulin sensitization, the Insulin-sensitization result was “No”.
